{
  "source": "patent US20050279350A1",
  "about": "“Methods and apparatus for relieving headaches, rhinitis and other common ailments” (priority 1999, published 2005)",
  "tested_on": "human subjects with migraine and tension-type headaches, jaw pain",
  "assay_type": "in vivo",
  "details": "for Symptom, Relief, Minutes Post-Treatment / Symptom Free, Minutes Post-Treatment / 24-hr. Recur Rate / After Effects: moderate; for Est. Rate / Est. Total Dose / Number of Doses / Single Dose Duration / Total Dose / Total Treatment Time: self-selected effective dose; for range of average dose duration / range of volume of gas: across severities",
  "description": "The test device was a hand-held, multi-dose, disposable, dispenser that was approximately 3 to 4 inches long and 6/8 to ⅞ inches in diameter constructed as described above. The device consisted of a plastic twist-top flow regulator mounted on top of a pressurized steel cartridge containing liquid carbon dioxide. The tip of the flow regulator has a nosepiece that is the optimal size and configuration to place against and seal off a nostril for administration of the gas. In a number of subjects, the effective nasal and oral carbon dioxide flow rates, and maximum tolerable nasal and oral flow rates, were measured using a laboratory apparatus. This apparatus consisted of a flow regulator connected via tubing to a flow meter and a large tank of carbon dioxide. These flow data were used, together with the number of seconds gas was administered during therapy, to calculate the estimated dose of gas in milliliters.\nOf the total of 15 subjects included in the analysis, 11 used the treatment for 35 headaches and 9 subjects used it for 9 allergy attacks. […] subjects treated both headache and allergy but on different days. The subjects included adults, elderly, and children of both sexes in good general health, having mild, moderate, and severe headaches or having allergies to plant, animal, or airborne allergens. The device was used to treat migraine and tension-type headaches, jaw pain, and allergies (allergic rhinitis, with symptoms that included sinus congestion, sneezing, and itchy throat and eyes). There was no limitation on the duration of symptoms before treatment with the device. Subjects with no prior use of the device and those who have used it (to treat allergy symptoms) previously were included.\nCarbon dioxide (100%) was administered nasally by the subject for a few seconds via a nostril to fill the nasal passages while holding their breath, or taking breaths of room air occasionally if the dose was lengthy. The gas exited the other nostril. Such nasal administration is similar to presently marketed nasal inhalers except that the administered gas was not inhaled. […] Subjects took as many doses as they needed for relief. It is important to note that there were no number of doses, duration of dose, time between doses, or gas flow rate specified for the user. Subjects chose their own regimen for symptom relief. Similarly, in medical practice today, gas therapy is a “titrate to effect” therapy without a specified dosage.\nThe International Headache Society (IHS) divides headache intensity into three categories: mild, moderate, and severe. The rating of the intensity level depends on the extent to which the headache interferes with the ability to function. […] The IHS uses headache relief at two hours as its primary outcome measure for present-day headache drug studies. Since therapy of the present invention acts much faster than present-day drugs, the primary outcome measure selected for this analysis was headache relief at 30 minutes. Each of the headache outcome measures used for this analysis is as follows: • Headache relief efficacy at 1, 5, 15, and 30 minutes post-treatment—headache relief efficacy is obtained when a pre-treatment headache severity of mild, moderate, or severe severity is improved to a post-treatment severity of none, mild, or moderate respectively. • Headache free efficacy at 1, 5, 15, and 30 minutes post-treatment—headache free efficacy is obtained when a pre-treatment headache of mild, moderate, or severe severity is improved to a post-treatment severity of none. • Headache recurrence within 24 hours post-treatment—recurrence within 24 hours is defined as no or mild headache severity after treatment that then worsened to moderate or severe headache severity within 24 hours after treatment with no use of rescue medication before the worsening. • Safety parameter—safety is defined as no adverse after-effects of treatment.",
  "key": {"[1]": {"details": "Migraine, severe - IHS criteria, 30 min post-treatment"}, "[2]": {"details": "Tension, mild, severe, 1 min post-treatment"}, "[3]": {"details": "Tension, mild, severe, 5 min post-treatment"}, "[4]": {"details": "Tension, mild, severe, 15 min post-treatment"}, "[5]": {"details": "Tension, mild, severe, 30 min post-treatment"}, "[6]": {"details": "Tension, severe - IHS criteria, 1 min post-treatment"}, "[7]": {"details": "Tension, severe - IHS criteria, 5 min post-treatment"}, "[8]": {"details": "Tension, severe - IHS criteria, 15 min post-treatment"}, "[9]": {"details": "Tension, severe - IHS criteria, 30 min post-treatment"}},
  "note": "Values joined by “and” are separate entries in the source; they are usually repeats but may differ in a detail not shown here. Equal entries are not always repeated. Where two headings read alike, the source gives them in different places. Marks after values point to notes of the source that are not given here.",
  "data": [
    {"smiles": "O=C=O", "note": "[carbon dioxide]", "values": [
      {"measurement": "Symptom, Relief, Minutes Post-Treatment", "setting": "Migraine, severe - IHS criteria, 15 min post-treatment", "result": 25, "unit": "%"},
      {"measurement": "Symptom Free, Minutes Post-Treatment", "setting": "[1]", "result": 75, "unit": "%"},
      {"measurement": "Symptom, Relief, Minutes Post-Treatment", "setting": "[1]", "result": 100, "unit": "%"},
      {"measurement": "Est. Rate", "setting": "Tension-All", "result": 4, "unit": "mL/s"},
      {"measurement": "Est. Total Dose", "setting": "Tension-All", "result": 122, "unit": "mL"},
      {"measurement": "Number of Doses", "setting": "Tension-All", "result": "3 #"},
      {"measurement": "Single Dose Duration", "setting": "Tension-All", "result": 8, "unit": "s"},
      {"measurement": "Total Dose", "setting": "Tension-All", "result": 24, "unit": "s"},
      {"measurement": "Total Treatment Time", "setting": "Tension-All", "result": 6, "unit": "min"},
      {"measurement": "Est. Rate", "setting": "Tension-Mild", "result": 3, "unit": "mL/s"},
      {"measurement": "Est. Total Dose", "setting": "Tension-Mild", "result": 28, "unit": "mL"},
      {"measurement": "Number of Doses", "setting": "Tension-Mild", "result": "2 #"},
      {"measurement": "Single Dose Duration", "setting": "Tension-Mild", "result": 3, "unit": "s"},
      {"measurement": "Total Dose", "setting": "Tension-Mild", "result": 6, "unit": "s"},
      {"measurement": "Total Treatment Time", "setting": "Tension-Mild", "result": 2, "unit": "min"},
      {"measurement": "Est. Rate", "setting": "Tension-Moderate", "result": 4, "unit": "mL/s"},
      {"measurement": "Est. Total Dose", "setting": "Tension-Moderate", "result": 50, "unit": "mL"},
      {"measurement": "Number of Doses", "setting": "Tension-Moderate", "result": "2 #"},
      {"measurement": "Single Dose Duration", "setting": "Tension-Moderate", "result": 6, "unit": "s"},
      {"measurement": "Total Dose", "setting": "Tension-Moderate", "result": 11, "unit": "s"},
      {"measurement": "Total Treatment Time", "setting": "Tension-Moderate", "result": 4, "unit": "min"},
      {"measurement": "Est. Rate", "setting": "Tension-Severe", "result": 5, "unit": "mL/s"},
      {"measurement": "Est. Total Dose", "setting": "Tension-Severe", "result": 288, "unit": "mL"},
      {"measurement": "Number of Doses", "setting": "Tension-Severe", "result": "4 #"},
      {"measurement": "Single Dose Duration", "setting": "Tension-Severe", "result": 15, "unit": "s"},
      {"measurement": "Total Dose", "setting": "Tension-Severe", "result": 56, "unit": "s"},
      {"measurement": "Total Treatment Time", "setting": "Tension-Severe", "result": 11, "unit": "min"},
      {"measurement": "24-hr. Recur Rate", "setting": "Tension, mild, severe", "result": 0, "unit": "%"},
      {"measurement": "After Effects", "setting": "Tension, mild, severe", "result": 0, "unit": "%"},
      {"measurement": "Symptom Free, Minutes Post-Treatment", "setting": "[2]", "result": 20, "unit": "%"},
      {"measurement": "Symptom, Relief, Minutes Post-Treatment", "setting": "[2]", "result": 20, "unit": "%"},
      {"measurement": "Symptom Free, Minutes Post-Treatment", "setting": "[3]", "result": 64, "unit": "%"},
      {"measurement": "Symptom, Relief, Minutes Post-Treatment", "setting": "[3]", "result": 64, "unit": "%"},
      {"measurement": "Symptom Free, Minutes Post-Treatment", "setting": "[4]", "result": 80, "unit": "%"},
      {"measurement": "Symptom, Relief, Minutes Post-Treatment", "setting": "[4]", "result": 96, "unit": "%"},
      {"measurement": "Symptom Free, Minutes Post-Treatment", "setting": "[5]", "result": 80, "unit": "%"},
      {"measurement": "Symptom, Relief, Minutes Post-Treatment", "setting": "[5]", "result": 96, "unit": "%"},
      {"measurement": "24-hr. Recur Rate", "setting": "Tension, severe - IHS criteria", "result": 0, "unit": "%"},
      {"measurement": "After Effects", "setting": "Tension, severe - IHS criteria", "result": 0, "unit": "%"},
      {"measurement": "Symptom Free, Minutes Post-Treatment", "setting": "[6]", "result": 14, "unit": "%"},
      {"measurement": "Symptom, Relief, Minutes Post-Treatment", "setting": "[6]", "result": 14, "unit": "%"},
      {"measurement": "Symptom Free, Minutes Post-Treatment", "setting": "[7]", "result": 55, "unit": "%"},
      {"measurement": "Symptom, Relief, Minutes Post-Treatment", "setting": "[7]", "result": 55, "unit": "%"},
      {"measurement": "Symptom Free, Minutes Post-Treatment", "setting": "[8]", "result": 77, "unit": "%"},
      {"measurement": "Symptom, Relief, Minutes Post-Treatment", "setting": "[8]", "result": 77, "unit": "%"},
      {"measurement": "Symptom Free, Minutes Post-Treatment", "setting": "[9]", "result": "80% and 77%"},
      {"measurement": "Symptom, Relief, Minutes Post-Treatment", "setting": "[9]", "result": 77, "unit": "%"},
      {"measurement": "headache outcome in an individual subject", "setting": "all subsequent mild and severe migraines, two to three doses for 25 sec each=120 ml", "result": "completely eliminate"},
      {"measurement": "dose dependence of the treatment", "setting": "analysis of the headache and allergy therapy data (Table IV)", "result": "dose dependent"},
      {"measurement": "headache outcome in an individual subject", "setting": "at onset of a migraine, doses twice for 20 to 25 seconds", "result": "completely aborts the migraine and it does not recur"},
      {"measurement": "adverse after effects of treatment", "setting": "headache subjects", "result": "no subjects reported any adverse after effects"},
      {"measurement": "onset of symptom relief", "setting": "headache, while administering the first dose", "result": "immediate onset of symptom relief within seconds"},
      {"measurement": "efficacy", "setting": "migraine and tension-type headache, occurring in seconds to minutes", "result": "80-94%"},
      {"measurement": "range of average dose duration", "setting": "migraine headaches", "result": "30 to 83", "unit": "s"},
      {"measurement": "range of volume of gas", "setting": "migraine headaches", "result": "82 to 233", "unit": "mL"},
      {"measurement": "headache outcome in an individual subject", "setting": "mild migraine, first use of device, one dose for 30 sec=60 ml", "result": "unable to improve"},
      {"measurement": "headache outcome in an individual subject", "setting": "moderate tension headache, one dose of 1 sec=2 ml", "result": "no success"},
      {"measurement": "headache outcome in an individual subject", "setting": "severe jaw/tooth ache, three doses of 45 sec each=675 ml", "result": "completely eliminate"},
      {"measurement": "headache outcome in an individual subject", "setting": "severe tension headache, three doses of 15 sec each=225 ml", "result": "completely eliminate"},
      {"measurement": "headache outcome in an individual subject", "setting": "severe tension headaches, three occasions, six doses of 8 sec each=240 ml", "result": "only moderate success"},
      {"measurement": "range of average dose duration", "setting": "tension-type headaches", "result": "6 to 56", "unit": "s"},
      {"measurement": "range of volume of gas", "setting": "tension-type headaches", "result": "28 to 288", "unit": "mL"}
    ]}
  ]
}
